Data from ChEMBL document CHEMBL1140625 (Bioorg Med Chem, 2007).

Biological target: Human immunodeficiency virus type 1 integrase (Human immunodeficiency virus 1, UniProt Q7ZJM1)
Assay: Inhibition of HIV1 integrase

Sequence of Human immunodeficiency virus type 1 integrase (Q7ZJM1 whole entry): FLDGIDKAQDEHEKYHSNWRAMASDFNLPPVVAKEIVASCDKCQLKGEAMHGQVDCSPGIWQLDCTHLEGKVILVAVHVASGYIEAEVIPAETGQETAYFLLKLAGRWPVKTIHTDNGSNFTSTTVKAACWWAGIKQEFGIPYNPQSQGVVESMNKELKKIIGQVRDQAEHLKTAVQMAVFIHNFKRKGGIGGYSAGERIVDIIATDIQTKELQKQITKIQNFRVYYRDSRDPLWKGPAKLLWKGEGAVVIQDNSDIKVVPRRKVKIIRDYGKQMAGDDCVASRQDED

IC50 [µM]	Compound
< 1	O=C(/C=C(\O)c1nc[nH]n1)c1ccc(Cc2ccc(F)cc2)[nH]1
< 1	O=C(/C=C(\O)c1cc[nH]c1)c1ccc(Cc2ccc(F)cc2)o1
